These are literature values, as cited in patent publication US20210319872A1, “DRUG AND DEVICE COMBINATION PRODUCTS WITH IMPROVED SAFETY AND EFFICACY PROFILES” (priority 2016, published 2021).

SMILES strings stand for the structures. Like-named read-outs stand apart in the source and are kept apart here.

The conditions of this series: in vivo.

In the case of `Nc1nnc(-c2cccc(Cl)c2Cl)c(N)n1` [Lamotrigine (Lamictal)], the Abdominal pain result was “Gastrointestinal: Abdominal pain (immediate-release, 5% to 10%),”; the Anemia result was “Hematologic: Anemia (immediate release, less than 0.1%),”; the Angioedema entry is on record as “Other: Angioedema (less than 0.1%), Neuroleptic malignant”; the Ataxia result is “release, 6%), Ataxia (immediate-release, 2% to 11%), Coordination”. Further, the Coordination problem result is recorded as “problem (immediate-release, 6% to 7%; extended-release, 3%),”; the Depression is listed as 3%), Depression (immediate-release, 4%; extended-release, 3%); the Diarrhea entry is on record as “Diarrhea (immediate-release, 6% to 11%; extended-release, 5%),”; the Dizziness result is recorded as “Dizziness (immediate-release, 7% to 54%; extended release, 14%),”. Besides, the Dysmenorrhea result is “Reproductive: Dysmenorrhea (immediate-release, 5% to 7%)”; the Headache entry is “Headache (immediate-release, 29%), Insomnia (immediate-release,”; the Indigestion entry is listed as “Indigestion (immediate-release, 2% to 7%), Nausea (immediate-”; the Insomnia is 5% to 10%), Somnolence (immediate-release, 9% to 17%;. The Nausea result is “release, 7% to 25%; extended-release, 7%), Vomiting (immediate-”; the Pain entry is “Other: Pain (immediate-release, 5%)”; the Rash entry is “Dermatologic: Rash (7% to 14%)”; the “Rash, Serious” value was “Serious (0.08% to 0.8%), Stevens-Johnson syndrome (0.08% to”. Besides, the Rhinitis entry is listed as “Respiratory: Rhinitis (immediate-release, 7% to 14%)” and the Vomiting entry is given as “release, 5% to 20%; extended-release, 6%))”.
Take `CN1CCN(C(=O)O[C@H]2c3nccnc3C(=O)N2c2ccc(Cl)cn2)CC1` [Lunesta (eszopiclone)]: the Angioedema result is listed as “Other: Angioedema (rare)”; the Disorder of taste entry is “Gastrointestinal: Disorder of taste (8% to 34%), Vomiting (3%)”; the Dizziness result was “Neurologic: Dizziness (1% to 7%), Headache (13% to 21%),”; the Headache entry was “Neurologic: Dizziness (1% to 7%), Headache (13% to 21%),”. The Migraine entry is on record as “Migraine (1% or greater)”; the Respiratory tract infection result is “Respiratory: Respiratory tract infection (5% to 10%)”; the Vomiting entry is listed as “Gastrointestinal: Disorder of taste (8% to 34%), Vomiting (3%)”.
In the case of `CNCC[C@@H](Oc1ccccc1C)c1ccccc1` [Atomoxetine (Strattera)], the Constipation is on record as 18%), Constipation (adult, 8%; pediatric, 1% to 2%), Decrease in; the Decrease in appetite result is listed as “appetite (adult, 16%; pediatric, 16%), Nausea (adult, 26%;”; the “Delay when starting to pass urine” value is listed as “Renal: Delay when starting to pass urine (adult, 6%)”; the Dysmenorrhea result is recorded as “Reproductive: Dysmenorrhea (adult, 3%), Erectile dysfunction”. Moreover, the Erectile dysfunction entry was “(adult, 8%)”; the Headache result was “Neurologic: Headache (pediatric, 19%), Insomnia (adult, 15%;”; the “Increased systolic arterial pressure” value is “pressure (adult, 4.2% to 12.4%; pediatric, 4.9% to 12.5%),”; the Menopausal flushing result was “Other: Menopausal flushing (adult, 3%)”. Further, the Priapism result is reported as “Reproductive: Priapism (rare)”; the Seizure is 0.1%; pediatric, 0.2%); the “Serious side effect, Cardiovascular” value is “Cardiovascular: Myocardial infarction, Sudden cardiac death”; the “Serious side effect, Hepatic” value is recorded as “Hepatic: Injury of liver (Severe), Liver failure”. The “Serious side effect, Neurologic” value is given as “Neurologic: Cerebrovascular accident, Dyskinesia, Seizure (adult,”; the “Serious side effect, Psychiatric” value was “Psychiatric: Mania, Psychotic disorder, Suicidal thoughts”; the Somnolence entry is on record as “pediatric, at least 2%), Somnolence (adult, 8%; pediatric, 11%)”; the Suicidal thoughts entry is listed as “(pediatric, 0.4%)”. For the same molecule, the Tachycardia result is “Tachycardia (adult, 1.5% to 22.4%; pediatric, 0.3% to 23.4%)”; the Vomiting entry is listed as “pediatric, 7% to 13%), Vomiting (adult, 4%; pediatric, 11%),”; the Weight decreased result is recorded as “Endocrine metabolic: Weight decreased (adults, 2%; pediatric, 3%”; the Xerostomia entry is “Xerostomia (adult, 20%)”.
Take `CN1CCN2c3ncccc3Cc3ccccc3C2C1` (stereo not drawn) [Mirtazepine (Remeron)]: the ALT/SGPT level raised entry is given as “Hepatic: ALT/SGPT level raised (2%)”; the Asthenia result is on record as “Neurologic: Asthenia (8%), Dizziness (7%), Somnolence (54%)”; the Cirrhosis of liver entry is listed as “Hepatic: Cirrhosis of liver (less than 0.1%)”; the Constipation entry is reported as “Gastrointestinal: Constipation (13%), Xerostomia (25%)”. For the same molecule, the Disturbance in thinking entry was “Psychiatric: Disturbance in thinking (3%)”; the Dizziness entry was “Neurologic: Asthenia (8%), Dizziness (7%), Somnolence (54%)”; the Grand mal seizure result is “Neurologic: Grand mal seizure (less than 0.1%), Status epilepticus”; the Increased appetite entry was “Endocrine metabolic: Increased appetite (17%), Serum triglycerides”. The Serum triglycerides raised entry is listed as “raised (increases to 500 mg/dL or greater: 6%), Weight gain (body”; the Somnolence entry was “Neurologic: Asthenia (8%), Dizziness (7%), Somnolence (54%)”; the Weight gain entry is recorded as “weight increase of 7% or greater: adults 7.5%; pediatrics 49%)”; the Xerostomia result is recorded as “Gastrointestinal: Constipation (13%), Xerostomia (25%)”.
With `O=C(O)C(O)C(O)C(=O)O.c1cnc2cc3c(cc2n1)[C@@H]1CNC[C@H]3C1` [Chantix], the Acquired night blindness entry is “Ophthalmic: Acquired night blindness (rare), Blurred vision”; the Angina entry was “Cardiovascular: Angina (2.3%), Myocardial infarction (2%)”; the Constipation result is “Gastrointestinal: Constipation (5% to 8%), Flatulence (6% to 9%),”; the Depression result was “Psychiatric: Abnormal behavior, Depression (3.5% to 11%),”. Also, the Dream disorder result is recorded as “Neurologic: Dream disorder (9% to 13%), Headache (11% to 19%),”; the Flatulence entry is on record as “Gastrointestinal: Constipation (5% to 8%), Flatulence (6% to 9%),”; the Headache entry is “Neurologic: Dream disorder (9% to 13%), Headache (11% to 19%),”; the Hostile behavior entry is reported as “Hostile behavior (2%), Mood disorder (2.3%), Suicidal behavior,”. For the same molecule, the Insomnia result was “Insomnia (10% to 19%)”; the Mood disorder result is recorded as “Hostile behavior (2%), Mood disorder (2.3%), Suicidal behavior,”; the Myocardial infarction result is “Cardiovascular: Angina (2.3%), Myocardial infarction (2%)”; the Nausea result is listed as “Nausea (30%), Vomiting (5% to 11%)”. The Retinal vascular disorder entry is “(infrequent), Retinal vascular disorder (rare), Subcapsular cataract”; the “Serious side effect, Neurologic” value was “Neurologic: Cerebrovascular accident”; the “Serious side effect, Psychiatric” value is recorded as “Psychiatric: Abnormal behavior, Depression (3.5% to 11%),”; the Subcapsular cataract result is recorded as “(rare), Transient blindness (rare), Visual disturbance (infrequent)”. For the same molecule, the “Suicidal behavior, and/or ideation” value is listed as “and/or ideation (6% to 11%)”; the Transient blindness result was “(rare), Transient blindness (rare), Visual disturbance (infrequent)”; the Visual disturbance entry was “(rare), Transient blindness (rare), Visual disturbance (infrequent)”; the Vomiting entry is reported as “Nausea (30%), Vomiting (5% to 11%)”.
For the molecule `O=c1n(CCCN2CCN(c3cccc(Cl)c3)CC2)nc2ccccn12` [Trazodone (Desyrel)], the Backache entry is listed as “Musculoskeletal: Backache (5%)”; the Confusion entry is given as “Neurologic: Confusion (up to 5.7%), Dizziness (25%), Headache”; the Constipation result was “Gastrointestinal: Constipation (7% to 8%), Diarrhea (up to 9%),”; the Diarrhea result was “Gastrointestinal: Constipation (7% to 8%), Diarrhea (up to 9%),”. The Dizziness result was “Neurologic: Confusion (up to 5.7%), Dizziness (25%), Headache”; the Fatigue result is recorded as “Other: Fatigue (5.7% to 15%)”; the Hypersensitivity reaction result is recorded as “Immunologic: Hypersensitivity reaction (less than 1%)”; the Hypotension result is given as “Cardiovascular: Cardiac dysrhythmia, Hypotension (3.8% to 7%),”. Also, the Nausea entry was “Nausea (21%), Vomiting (at least 1%), Xerostomia (14% to 33.8%)”; the Vomiting result was “Nausea (21%), Vomiting (at least 1%), Xerostomia (14% to 33.8%)”; the Xerostomia entry is on record as “Nausea (21%), Vomiting (at least 1%), Xerostomia (14% to 33.8%)”.
On to `CC(CCc1ccccc1)NCC(O)c1ccc(O)c(C(N)=O)c1.Cl` (stereo not drawn), for which the Dizziness result was “Neurologic: Dizziness (9% to 20%)”, the Fatigue result is “Other: Fatigue (11%)”, the Has tingling sensation result is on record as “Dermatologic: Has tingling sensation (7%.)” and the Nasal congestion result is listed as “Respiratory: Nasal congestion (3%)”. Moreover, the Nausea result is recorded as “Gastrointestinal: Nausea (14%)”. For the same molecule, the Orthostatic hypotension entry (iv) is “Cardiovascular: Orthostatic hypotension (1%, oral; 58%, IV)”. In addition, the Orthostatic hypotension entry (po) is on record as “Cardiovascular: Orthostatic hypotension (1%, oral; 58%, IV)”.
With `Cn1c(CNc2ccc(C(=N)N)cc2)nc2cc(C(=O)N(CCC(=O)O)c3ccccn3)ccc21` [Dabigatran (Pradaxa)], the Bleeding entry is on record as “prophylaxis, 10.5%; nonvalvular atrial fibrillation, 16.6%)”; the “Bleeding, Major” value was 0.3% to 1.4%; nonvalvular atrial fibrillation, 3.3%), Thrombosis; the Gastroesophageal reflux disease entry is on record as “disease (Atrial fibrillation, 5.5%), Gastrointestinal hemorrhage”; the Indigestion entry is given as “pulmonary embolism, 7.5%)”. Also, the Myocardial infarction entry is given as “embolism, 0.32% to 0.66%; nonvalvular atrial fibrillation, 0.7%)”.
As for `CC(C)NCC(O)COc1cccc2ccccc12` (stereo not drawn) [Propranolol (Inderal)], the Dizziness result was “Neurologic: Dizziness (Hypertension, 4% to 7%), Sleep disorder” and the Fatigue result is on record as “Other: Fatigue (5% to 7%)”.
